Peptide text beside a SMILES is read from it.

The Ki is a measure of affinity in units of concentration, obtained from inhibition or displacement. A high value points to weaker binding. Usually Km stands for the substrate concentration at which the rate is half of its maximum.

The first assay deals with T1, Ptr2p (Saccharomyces cerevisiae, UniProt P32901).
T1 sequence (P32901 1-601): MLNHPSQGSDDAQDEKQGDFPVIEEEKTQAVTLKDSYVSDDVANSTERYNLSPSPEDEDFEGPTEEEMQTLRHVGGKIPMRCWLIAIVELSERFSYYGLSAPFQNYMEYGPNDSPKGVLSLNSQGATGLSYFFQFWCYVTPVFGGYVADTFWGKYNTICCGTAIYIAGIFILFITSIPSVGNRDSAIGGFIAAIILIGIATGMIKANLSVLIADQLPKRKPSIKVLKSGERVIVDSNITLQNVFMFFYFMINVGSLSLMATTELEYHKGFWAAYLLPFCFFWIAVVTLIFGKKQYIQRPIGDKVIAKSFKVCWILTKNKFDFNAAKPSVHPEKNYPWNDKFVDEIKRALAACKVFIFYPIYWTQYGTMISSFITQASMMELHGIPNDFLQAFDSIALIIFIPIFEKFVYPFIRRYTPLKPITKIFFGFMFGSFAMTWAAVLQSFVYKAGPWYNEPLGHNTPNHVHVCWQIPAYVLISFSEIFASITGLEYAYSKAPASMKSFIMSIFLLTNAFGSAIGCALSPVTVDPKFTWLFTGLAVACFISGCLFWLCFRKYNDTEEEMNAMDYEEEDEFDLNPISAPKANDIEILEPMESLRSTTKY
In words: Fluorescence-based competitive uptake. In kind it is cell-based.
Conditions: not given
For `NCC(=O)NCC(=O)NCC(=O)O` [Gly–Gly–Gly] (H-Gly-Gly-Gly-OH; N-terminus and C-terminus assumed), the Ki was 48000 µM.

Compound `C[C@H](N)C(=O)N[C@@H](C)C(=O)O` [N-terminal A, C-terminal A, Ala–Ala] (H-Ala-Ala-OH; N-terminus and C-terminus assumed) came in with a Ki of 400 µM.

For the compound `CC(C)C[C@H](NC(=O)[C@H](C)N)C(=O)O` [N-terminal A, C-terminal L, Ala–Leu] (H-Ala-Leu-OH; N-terminus and C-terminus assumed), the affinity corresponds to a Ki of 310 µM.

Compound `CC(C)C[C@H](NC(=O)CN)C(=O)O` [N-terminal G, C-terminal L, Gly-Leu] had a Ki of 600 µM.

With `CC(C)C[C@H](NC(=O)[C@@H](N)Cc1c[nH]cn1)C(=O)O` [N-terminal H, C-terminal L, His–Leu] (H-His-Leu-OH; N-terminus and C-terminus assumed), the affinity corresponds to a Ki of 50 µM.

`CC(C)C[C@H](N)C(=O)NCC(=O)O` [N-terminal L, C-terminal G, Leu-Gly] (H-Leu-Gly-OH; N-terminus and C-terminus assumed) registered a Ki of 360 µM.

On to `CC(C)C[C@H](N)C(=O)N[C@@H](Cc1c[nH]cn1)C(=O)O` [N-terminal L, C-terminal H, Leu-His] (H-Leu-His-OH; N-terminus and C-terminus assumed), for which the Ki is 130 µM.

The compound `N[C@@H](Cc1c[nH]c2ccccc12)C(=O)N[C@@H](Cc1ccccc1)C(=O)O` [N-terminal W, C-terminal F, Trp-Phe] (H-Trp-Phe-OH) showed a Ki of 20 µM.

Staying with this assay, now noted: SC-Ptr2p cells.
Turning to carnosine [reference compound], the “competitive inhibition of β-Ala–Lys (AMCA) uptake” value was “inhibited”.

Still in this assay, the particulars now being: read-out: Km of β-Ala–Lys (AMCA) uptake; SC-Ptr2p cells; (±s.d.).
With β-Ala–Lys (AMCA) [reference compound], the Km worked out at 160 µM.

The values above are taken from paper PMC3791473 (Nature Communications, 2013).
